# Reference: the supplement of paper PMC10307832
# What was measured:
# Assay in all cases: relative viability (nuclei count vs DMSO), 5 days (fraction); higher = more cells survive
# [1] = compound: Cn1c(=O)n(-c2ccc(C(C)(C)C#N)cc2)c2c3cc(-c4cnc5ccccc5c4)ccc3ncc21 [Dactolisib] + CC1(C)CCC(c2ccc(Cl)cc2)=C(CN2CCN(c3ccc(C(=O)NS(=O)(=O)c4ccc(N[C@H](CCN5CCOCC5)CSc5ccccc5)c(S(=O)(=O)C(F)(F)F)c4)cc3)CC2)C1 [Navitoclax] (partner 0.5 µM)
# In short: (§1)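 Five library-drug doses in √10 steps were combined with a fixed anchor-drug dose, or a single drug was given alone, by pin tool to lung cancer cell lines in 1536-well plates the day after seeding. Nuclei were stained and counted after 5 days. Relative viability is the nuclei count in treated wells over that in vehicle wells, taken as the median of duplicate plates.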
# [2] = compound: C1CCC(CC1)N(CCNCCC2=C3C(=C(C=C2)O)NC(=O)CO3)C(=O)CCNCCC4=CC(=C(C=C4)Cl)Cl [AZ505] + N=C(N)NC(=N)NCCc1ccccc1 [Phenformin] (partner 250 µM)
# In short: as §1
# [3] = compound: C1CCC(CC1)N(CCNCCC2=C3C(=C(C=C2)O)NC(=O)CO3)C(=O)CCNCCC4=CC(=C(C=C4)Cl)Cl [AZ505] + CC(=O)Nc1cccc(-n2c(=O)n(C3CC3)c(=O)c3c(Nc4ccc(I)cc4F)n(C)c(=O)c(C)c32)c1 [Trametinib] (partner 0.02 µM)
# In short: as §1
# [4] = compound: C1CCC(CC1)N(CCNCCC2=C3C(=C(C=C2)O)NC(=O)CO3)C(=O)CCNCCC4=CC(=C(C=C4)Cl)Cl [AZ505] + Nc1ncn([C@H]2C[C@H](O)[C@@H](CO)O2)c(=O)n1 [Decitabine] (partner 2 µM)
# In short: as §1
Cell Line,relative viability ([1]; first compound 0.002 µM),relative viability ([1]; first compound 0.006325 µM),relative viability ([1]; first compound 0.02 µM),relative viability ([1]; first compound 0.06325 µM),relative viability ([1]; first compound 0.2 µM),relative viability ([2]; first compound 0.08 µM),relative viability ([2]; first compound 0.253 µM),relative viability ([2]; first compound 0.8 µM),relative viability ([2]; first compound 2.53 µM),relative viability ([2]; first compound 8 µM),relative viability ([3]; first compound 0.08 µM),relative viability ([3]; first compound 0.253 µM),relative viability ([3]; first compound 0.8 µM),relative viability ([3]; first compound 2.53 µM),relative viability ([3]; first compound 8 µM),relative viability ([4]; first compound 0.08 µM),relative viability ([4]; first compound 0.253 µM),relative viability ([4]; first compound 0.8 µM),relative viability ([4]; first compound 2.53 µM),relative viability ([4]; first compound 8 µM)
NCI-H2170,0.58,0.512,0.473,0.217,0.198,0.396,0.42,0.397,0.405,0.421,0.84,0.931,0.883,0.893,0.942,0.469,0.466,0.422,0.482,0.453
NCI-H2347,0.928,0.746,0.729,0.308,0.271,0.271,–,–,–,0.331,0.332,0.258,0.263,0.247,0.254,0.545,0.572,0.511,0.461,0.505
NCI-H1993,0.827,0.846,0.625,0.537,0.626,0.472,0.426,0.546,0.56,0.478,0.463,0.533,0.45,0.575,0.469,0.595,0.602,0.575,0.617,0.594
NCI-H322M,1.22,1.17,1.16,0.733,0.677,0.75,0.756,0.718,0.728,0.826,0.501,–,0.521,0.491,0.486,0.679,–,0.67,0.677,0.76
NCI-H838,1.13,0.776,0.474,0.205,0.251,0.503,0.491,0.49,0.466,0.579,0.487,0.464,0.505,0.523,0.479,0.444,0.475,0.461,0.469,0.506
HARA,1.2,1.13,1.18,1.13,0.404,0.389,0.422,0.42,0.343,0.408,0.454,–,0.62,0.504,0.71,0.302,–,0.41,0.482,0.408
NCI-H2087,0.986,0.907,1.02,0.481,0.429,0.389,0.35,0.395,0.396,0.471,0.171,0.257,0.221,0.281,0.219,0.224,0.254,0.275,0.289,0.277
